# Legend:
# Format in all cases: physicochemical
# [1] = Apparent pKa of LNP formulations, TNS fluorescence assay; conditions: LNP cationic lipid/DSPC/cholesterol/DMG-PEG 50/10/38.5/1.5 mol %, pH 3 to 9
# Experimental: As reported in literature, the apparent pKa of LNP formulations correlates with the delivery efficiency of LNPs for nucleic acids in vivo. The apparent pKa of each formulation was determined using an assay based on fluorescence of 2-(p-toluidino)-6-napthalene sulfonic acid (TNS). LNP formulations comprising of cationic lipid/DSPC/cholesterol/DMG-PEG (50/10/38.5/1.5 mol %) in PBS were prepared as described above. TNS was prepared as a 300 uM stock solution in distilled water. LNP formulations were diluted to 0.1 mg/ml total lipid in 3 mL of buffered solutions containing 50 mM sodium citrate, 50 mM sodium phosphate, 50 mM sodium borate, and 30 mM sodium chloride where the pH ranged from 3 to 9. An aliquot of the TNS solution was added to give a final concentration of 0.1 mg/ml and following vortex mixing fluorescence intensity was measured at room temperature in a Molecular Devices Spectramax iD3 spectrometer using excitation and mission wavelengths of 325 nm and 435 nm. A sigmoidal best fit analysis was applied to the fluorescence data and the pKa value was measured as the pH giving rise to half-maximal fluorescent intensity.
# [2] = Lipid nanoparticle size and polydispersity by dynamic light scattering (Malvern Zetasizer Nano ZS); conditions: LNP of cationic lipid/DSPC/cholesterol/PEG-lipid 50:10:38.5:1.5 with mRNA
# Experimental: (§1) Briefly, a cationic lipid provided herein, DSPC, cholesterol, and PEG-lipid were solubilized in ethanol at a molar ratio of 50:10:38.5:1.5, and mRNA were diluted in 10 to 50 mM citrate buffer, pH=4. The LNPs were prepared at a total lipid to mRNA weight ratio of approximately 10:1 to 30:1 by mixing the ethanolic lipid solution with the aqueous mRNA solution at a volume ratio of 1:3 using a microfluidic apparatus, total flow rate ranging from 9-30 mL/min. Ethanol were thereby removed and replaced by DPBS using dialysis. Finally, the lipid nanoparticles were filtered through a 0.2 μm sterile filter.
# (§2) Lipid nanoparticle size were determined by dynamic light scattering using a Malvern Zetasizer Nano ZS (Malvern UK) using a 173° backscatter detection mode. The encapsulation efficiency of lipid nanoparticles were determined using a Quant-it Ribogreen RNA quantification assay kit (Thermo Fisher Scientific, UK) according to the manufacturer's instructions.
# [3] = Encapsulation efficiency of lipid nanoparticles, Quant-it Ribogreen RNA quantification assay; conditions: LNP with mRNA
# Experimental: as §1, §2
Structure (SMILES),Apparant Pka [1],polydispersity [2],size (nm) [2],Encapsulation Efficiency [3]
CCCCCCCCC(CCCCCCCC)CC(=O)OCC(CCCCN(CC)CCN(CCO)C1CCC1)COC(=O)CC(CCCCCCCC)CCCCCCCC [Compound 67],6.444,0.116,130.6 nm,91.83%
CCCCCCCCC(CCCCCC)CC(=O)OCC(CCCCN(CCO)C1CCCCC1)COC(=O)CC(CCCCCC)CCCCCCCC (stereo not shown) [Compound 68],6.22,0.084,55.01 nm,89.42%
CCCCCCCCC(CCCCCC)CC(=O)OCC(CCCCN(CCN(CC)CCO)C1CCC1)COC(=O)CC(CCCCCC)CCCCCCCC (stereo not shown) [Compound 69],6.789,0.013,110.30 nm,91.81%
CCCCCCCCC(CCCCCCCC)COC(=O)CCOCC(CN(C)CCN(CCO)C1CC1)OCCC(=O)OCC(CCCCCCCC)CCCCCCCC (stereo not shown) [Compound 70],6.351,0.049,78.45 nm,93.32%
CCCCCCCCC(CCCCCCCC)COC(=O)CCOCC(CN(C)CCN(CCO)C1CCCC1)OCCC(=O)OCC(CCCCCCCC)CCCCCCCC (stereo not shown) [Compound 71],6.727,0.077,76.45 nm,94.62%
CCCCCCCCC(CCCCCCCC)COC(=O)CCOCC(CN(C)CCN(CCO)C1CCCCCC1)OCCC(=O)OCC(CCCCCCCC)CCCCCCCC (stereo not shown) [Compound 73],6.616,0.088,76.26 nm,94.69%
CCCCCCCCC(CCCCCCCC)COC(=O)CCOCC(CN(C)CCN(CCO)C1CCCCCCC1)OCCC(=O)OCC(CCCCCCCC)CCCCCCCC (stereo not shown) [Compound 74],6.539,0.031,101.00 nm,93.97%
CCCCCCCCC(CCCCCC)CC(=O)OCC(CCCCN(CC=C(C)C)CCO)COC(=O)CC(CCCCCC)CCCCCCCC (stereo not shown) [Compound 77],6.439,0.046,56.88 nm,89.92%
CCCCCCCCC(CCCCCC)CC(=O)OCC(CCCCN(CC=C(C)C)CCN(CCO)C1CCC1)COC(=O)CC(CCCCCC)CCCCCCCC (stereo not shown) [Compound 78],6.166,0.017,159.72 nm,93.77%
CCCCCCCCC(CCCCCC)CC(=O)OCC(CCCCN(CCN(CCO)C1CCC1)C1CCC1)COC(=O)CC(CCCCCC)CCCCCCCC (stereo not shown) [Compound 79],5.927,0.01,103.64 nm,91.29%
CCCCCCCCC(CCCCCC)CC(=O)OCC(CCCCN(CCN(CCC)CCO)C1CCC1)COC(=O)CC(CCCCCC)CCCCCCCC (stereo not shown) [Compound 80],6.063,0.027,98.95 nm,92.20%
CCCCCCCCCCC(=O)OCC(CCCCN(CCO)C1CCC1)COC(=O)CC(CCCCCC)CCCCCCCC (stereo not shown) [Compound 81],6.79,0.023,72.78 nm,88.28%
CCCCCCCCCCC(=O)OCC(CCCCN(CCN(CCO)C1CCC1)C1CCC1)COC(=O)CC(CCCCCC)CCCCCCCC (stereo not shown) [Compound 82],6.621,0.079,84.46 nm,92.38%
CCCCCCCCC(CCCCCC)CC(=O)OCC(CCCCN(CCCC)CCN(CCO)C1CCC1)COC(=O)CC(CCCCCC)CCCCCCCC (stereo not shown) [Compound 83],6.182,0.019,94.04 nm,92.39%
CCCCCCCCCCC(=O)OCC(CCCCN(CCO)C1CCCC1)COC(=O)CC(CCCCCC)CCCCCCCC (stereo not shown) [Compound 84],6.785,0.01,83.05 nm,93.44%
CCCCCCCCCCC(=O)OCC(CCCCN(CCO)C1CCCCC1)COC(=O)CC(CCCCCC)CCCCCCCC (stereo not shown) [Compound 85],6.438,0.066,74.14 nm,92.17%

Structure (SMILES),Apparant Pka [1],polydispersity [2],size (nm) [2],Encapsulation Efficiency [3]
CCCCCCCCCCCCCCCC(=O)OCC(CCCCN(CCO)C1CCCCCC1)COC(=O)CC(CCCCCC)CCCCCCCC (stereo not shown) [Compound 87],6.372,0.044,64.08 nm,92.47%
CCCCCCCCCCCCCCCC(=O)OCC(CCCCN(CCO)C1CCCCCCC1)COC(=O)CC(CCCCCC)CCCCCCCC (stereo not shown) [Compound 88],6.309,0.063,59.54 nm,92.91%
CCCCC/C=C\C/C=C\CCCCCCCC(=O)OCC(CCCCN(CCO)C1CCC1)COC(=O)CC(CCCCCC)CCCCCCCC (stereo not shown) [Compound 89],6.926,0.04,69.36 nm,92.56%
CCCCC/C=C\C/C=C\CCCCCCCC(=O)OCC(CCCCN(CCO)C1CCCC1)COC(=O)CC(CCCCCC)CCCCCCCC (stereo not shown) [Compound 90],7.024,0.043,70.38 nm,93.02%
CCCCC/C=C\C/C=C\CCCCCCCC(=O)OCC(CCCCN(CCO)C1CCCCCC1)COC(=O)CC(CCCCCC)CCCCCCCC (stereo not shown) [Compound 91],6.608,0.111,63.89 nm,92.11%
CCCCCCCCCCC(=O)OCC(CCCCN(CCO)C1CCCCCCC1)COC(=O)CC(CCCCCC)CCCCCCCC (stereo not shown) [Compound 93],6.377,0.111,63.32 nm,85.30%
CCCCCCCCCCC(=O)OCC(CCCCN(CC=C(C)C)CCO)COC(=O)CC(CCCCCC)CCCCCCCC (stereo not shown) [Compound 94],6.793,0.04,77.15 nm,93.93%
CCCCCCCCCCCCCCCC(=O)OCC(CCCCN(CCO)C1CCC1)COC(=O)CC(CCCCCC)CCCCCCCC (stereo not shown) [Compound 98],6.997,0.01,77.16 nm,93.58%
CCCCCCCCCCCCCCCC(=O)OCC(CCCCN(CCO)C1CCCC1)COC(=O)CC(CCCCCC)CCCCCCCC (stereo not shown) [Compound 99],7.059,0.025,77.25 nm,94.14%
CCCCC/C=C\C/C=C\CCCCCCCC(=O)OCC(CCCCN(CCO)C1CCCCC1)COC(=O)CC(CCCCCC)CCCCCCCC (stereo not shown) [Compound 100],6.666,0.055,64.54 nm,91.24%
CCCCC/C=C\C/C=C\CCCCCCCC(=O)OCC(CCCCN(CCO)C1CCCCCCC1)COC(=O)CC(CCCCCC)CCCCCCCC (stereo not shown) [Compound 101],6.488,0.111,59.51 nm,92.79%
CCCCCCCCC(CCCCCC)COC(=O)CCOCC(CN(CCC)CCN(CCO)C1CCCCCC1)OCCC(=O)OCC(CCCCCC)CCCCCCCC (stereo not shown) [Compound 106],6.035,0.046,65.31 nm,93.17%
CCCCCCCCC(CCCCCC)CC(=O)OCC(CCCCN(CCN(CCO)CCCC)C1CCC1)COC(=O)CC(CCCCCC)CCCCCCCC (stereo not shown) [Compound 109],6.204,0.011,74 nm,92.59%
CCCCCCCCC(CCCCCC)CC(=O)OCC(CCCCN(CCN(CCO)CCCCC)C1CCC1)COC(=O)CC(CCCCCC)CCCCCCCC (stereo not shown) [Compound 110],6.147,0.038,75.71 nm,92.71%
CCCCCCCCC(CCCCCC)CC(=O)OCC(CCCCN(CCN(CCO)CCCCCC)C1CCC1)COC(=O)CC(CCCCCC)CCCCCCCC (stereo not shown) [Compound 111],6.072,0.048,62.77 nm,92.54%

# — patent publication US11964052B2, “Lipid compounds and lipid nanoparticle compositions” (SUZHOU ABOGEN BIOSCIENCES CO., LTD., priority 2021, dated 2024)
